Data as given in patent US10562842B2, “Use of polyaminoisoprenyl derivatives in antibiotic or antiseptic treatment” (UNIVERSITE D'AIX-MARSEILLE, priority 2011, dated 2020).

How the values were obtained:
CHO cells = test: Toxicity on CHO cultured cells; format: cell-based; details: for IC50: Cricetulus griseus, killing of 50% of the CHO cells after 24 hours of incubation
Procedure: The toxicity of each compound was determined on CHO cultured cells. Incubation of CHO cells was performed with serial dilution of compounds. The compounds are either solubilized in DMSO or in PBS. The IC50 corresponds to the concentration of compounds leading to a killing of 50% of the CHO cells after 24 hours of incubation.

Ea289ΔacrB (Ea294) = test: MIC of antibiotics ± test compound (MIC ratio), micro-broth dilution; format: cell-based, Enterobacter aerogenes; details: compound at MIC/4, Set 1; for MIC ratio(*) on Ea289ΔacrB Chl: chloramphenicol; for MIC ratio(*) on Ea289ΔacrB Ery: erythromycin; for MIC ratio(*) on Ea289ΔacrB Nal: nalidixic acid
Procedure: (§1) The Enterobacter aerogenes Ea289 strain is a Kans derivative of the MDR clinical isolate Ea27, the acrB mutant, EaEP294, was constructed from Ea289. Multidrug-resistant Salmonella enterica serovar Typhimurium DT104 strains (BN10055) was isolated from cattle in France, the isogenic acrB derivative mutant, BN10055ΔacrB, was constructed from BN10055. Strains were maintained at −80° C. in 25% (v/v) glycerol for cryoprotection. Bacteria were routinely grown in Mueller-Hinton (MH) broth at 37° C.
(§2) Susceptibilities to antibiotics and compounds were determined in microplates by broth dilution method, as previously described. Minimal Inhibitory Concentrations (MICs) were determined with an inoculum of 10^6 CFU in 200 μL of MH broth containing two-fold serial dilutions of each drug. […] All MIC determinations were repeated at least three times in independent experiments.
(§3) […] All MIC determinations were repeated at least three times in independent experiments. The MIC ratio corresponds to the ratio of the MIC of an antibiotic alone to the MIC of the same antibiotic in the presence of the tested compound (at MIC/4).
(§4) For reminder, the MIC ratio corresponds to the ratio of the MIC of the assessed antibiotic alone to the MIC of the same antibiotic in the presence of the tested compound (at MIC/4).

[1] = tested on: strain IV2571418 - Escherichia coli pig (resistant); test: MIC of antibiotics in the presence and absence of test compound, veterinary strains; format: cell-based; set-up: MIC for strain IV2571418, Doxycycline in the presence of test compound: unit not given beside the values; details: compound at the Concentration (μM) (4-50)
Procedure: (§5) For each strain and each antibiotic, the MICs were determined in the presence and in the absence of one test compound.

[2] = tested on: Enterobacter aerogenes MDR Ea289; test: MIC of antibiotics ± test compound (MIC ratio), micro-broth dilution; format: cell-based; details: compound at MIC/4, Set 2; for MIC ratio (*) on Ea289 Dox: doxycycline; for MIC ratio (*) on Ea289 Nal: nalidixic acid
[3] = tested on: strain IV2570533 - Escherichia coli cattle (resistant); test: MIC of antibiotics in the presence and absence of test compound, veterinary strains; format: cell-based; details: compound at the Concentration (μM) (0.896-12.6)
Procedure: as §5

[4] = tested on: strain IV2570060 - Escherichia coli cattle (sensible); test: as above; format: cell-based; details: compound at the Concentration (μM) (4-50)
Procedure: as §5

[5] = tested on: Salmonella Thyphimurium MDR BN10055; test: MIC of antibiotics ± test compound (MIC ratio), micro-broth dilution; format: cell-based, Salmonella enterica serovar Typhimurium; details: compound at MIC/4; for MIC ratio (*) on BN10055 Chl: chloramphenicol; for MIC ratio (*) on BN10055 Dox: doxycycline; for MIC ratio(*) on BN10055 Ery: erythromycin; for MIC ratio (*) on BN10055 Nal: nalidixic acid
Procedure: as §1, §2, §3, §4

BN10055ΔacrB [6] = test: as above; format: cell-based, Salmonella enterica serovar Typhimurium; details: compound at MIC/4, Set 1; for MIC ratio(*) on BN10055ΔacrB Chl: chloramphenicol; for MIC ratio(*) on BN10055ΔacrB Ery: erythromycin; for MIC ratio(*) on BN10055ΔacrB Nal: nalidixic acid
Procedure: as §1, §2, §3, §4

[7] = tested on: strain IV2571223 - Escherichia coli pig (sensible); test: MIC of antibiotics in the presence and absence of test compound, veterinary strains; format: cell-based; set-up: MIC for strain IV2571223, Doxycycline in the presence of test compound: unit not given beside the values; details: compound at the Concentration (μM) (2-50)
Procedure: as §5

[8] = tested on: Enterobacter aerogenes MDR Ea289; test: MIC of antibiotics ± test compound (MIC ratio), micro-broth dilution; format: cell-based; details: for efficient concentration, times lower than the control PAβN: chloramphenicol MIC ratio of 8 on Ea289; for activity, effective concentration compared with PAβN to reach a MIC ratio of 8: chloramphenicol on Ea289; for Effective concentration (mM) for a MIC ratio of chloramphenicol ≥ 8 on Ea289 / MIC ratio (*) on Ea289 Chl: chloramphenicol; for MIC ratio (*) on Ea289 Chl / MIC ratio(*) on Ea289 Ery / MIC ratio (*) on Ea289 Nal: compound at MIC/4; for MIC ratio(*) on Ea289 Ery: erythromycin; for MIC ratio (*) on Ea289 Nal: nalidixic acid
Procedure: The process consists of treating the MDR bacteria with the compounds of the invention in the presence of antibiotics.
as §2
The MICs of chloramphenicol±test compounds (MIC/4) were determined by the micro-broth dilution method (9). All MIC determinations were repeated at least three times in independent experiments. The MIC ratio corresponds to the ratio of the MIC of an antibiotic alone to the MIC of the same antibiotic in the presence of the tested compound (at MIC/4).
The compounds listed in Table 2 were tested for their ability to decrease the chloramphenicol MIC of Ea289, an Enterobacter aerogenes MDR strain (1). Each compound was first tested at MIC/4. […] All MIC determinations were repeated at least three times in independent experiments.
as §4

[9] = Tolerance in mice, intraperitoneal route; format: in vivo; details: for tissue anomaly (liver, lung, kidney, intestine): day 2, Compound 5 8.8 mg/kg, 8 1.46 mg/kg, 11 0.45 mg/kg, 14 0.35 mg/kg, 12 6.3 mg/kg
Procedure: Mice were administered with increasing doses of test compounds by intraperitoneal route.
The mice were sacrificed on day 2 after the injection of the test compound and autopsied. No morphological anomaly was observed. Liver, lung, kidney and intestine of each mouse were fixed and analysed.

Ea294 = test: MIC by broth dilution (intrinsic MIC); format: cell-based, Enterobacter aerogenes; details: antibiotic alone
Procedure: as §2

Ea289 = test: MIC by broth dilution (intrinsic MIC); format: cell-based, Enterobacter aerogenes; details: antibiotic alone
Procedure: as §2

BN10055 = test: MIC by broth dilution (intrinsic MIC); format: cell-based, Salmonella enterica; details: antibiotic alone
Procedure: as §2

BN10055ΔacrB [10] = test: MIC by broth dilution (intrinsic MIC); format: cell-based, Salmonella enterica; details: antibiotic alone
Procedure: as §2

| SMILES | IC50 (CHO cells) [mM] | MIC ratio(*) on Ea289ΔacrB Chl (Ea289ΔacrB (Ea294)) | MIC ratio(*) on Ea289ΔacrB Ery (Ea289ΔacrB (Ea294)) | MIC ratio(*) on Ea289ΔacrB Nal (Ea289ΔacrB (Ea294)) | MIC ratio (*) on Ea289 Dox [2] | MIC ratio (*) on Ea289 Nal [2] | MIC ratio (*) on BN10055 Chl ([5]; Set 1) | MIC ratio (*) on BN10055 Chl ([5]; Set 2) | MIC ratio (*) on BN10055 Dox ([5]; Set 2) | MIC ratio(*) on BN10055 Ery ([5]; Set 1) | MIC ratio (*) on BN10055 Nal ([5]; Set 1) | MIC ratio (*) on BN10055 Nal ([5]; Set 2) | MIC ratio(*) on BN10055ΔacrB Chl (BN10055ΔacrB [6]) | MIC ratio(*) on BN10055ΔacrB Ery (BN10055ΔacrB [6]) | MIC ratio(*) on BN10055ΔacrB Nal (BN10055ΔacrB [6]) | Effective concentration (mM) for a MIC ratio of chloramphenicol ≥ 8 on Ea289 [8] [mM] | efficient concentration, times lower than the control PAβN [8] | activity, effective concentration compared with PAβN to reach a MIC ratio of 8 [8] | MIC ratio (*) on Ea289 Chl ([8]; Set 1) | MIC ratio (*) on Ea289 Chl ([8]; Set 2) | further results |
| --- | --- | --- | --- | --- | --- | --- | --- | --- | --- | --- | --- | --- | --- | --- | --- | --- | --- | --- | --- | --- | --- |
| CC(C)=CCCC(C)=CCNCCCNCCCCNCCCN (racemic) [Compound 10, {3-[4-(3-Amino-propylamino)-butylamino]-propyl}-(3,7-dimethyl-octa-2,6-dienyl)-amine] | 2.33 | 16 | 8 | 8 | 16 | 16 | 16 | 16 | 16 | 4 | 64 | 64 | 2 | 8 | 2 | 0.0078 | about 4.9 times | strong activity | 16 | 8 | IC50 on CHO cells, times higher than effective concentration (CHO cells; IC50 on CHO cells versus effective concentration on Ea289): about 300 times; MIC for strain IV2571418, Doxycycline in the presence of test compound [1]: 2; MIC for strain IV2571418, Tylosine in the presence of test compound [1]: 16; MIC for strain IV2570533, Doxycycline in the presence of test compound [3]: 2; MIC for strain IV2570533, Tylosine in the presence of test compound [3]: 8; MIC for strain IV2570060, Doxycycline in the presence of test compound [4]: 0.125; MIC for strain IV2570060, Tylosine in the presence of test compound [4]: 16; MIC for strain IV2571223, Doxycycline in the presence of test compound [7]: 0.0625; MIC for strain IV2571223, Tylosine in the presence of test compound [7]: 4; MIC ratio(*) on Ea289 Ery ([8]; Set 1): 4; MIC ratio (*) on Ea289 Nal ([8]; Set 1): 16 |
| CC(C)=CCC/C(C)=C/CC/C(C)=C/CNCCCN(CCCN)CCCN [Compound 9, {3-[Bis-(3-amino-propyl)-amino]-propyl}-(3,7,11-trimethyl-dodeca-2,6,10-trienyl)-amine] | 0.132 | 4 | 8 | 128 | 16 | 16 | 16 | 16 | 8 | 32 | 128 | 128 | 2 | 8 | 8 | 0.0078 | about 4.9 times | strong activity | 32 | 32 | MIC ratio(*) on Ea289 Ery ([8]; Set 1): 16-32; MIC ratio (*) on Ea289 Nal ([8]; Set 1): 16 |
| CC(C)=CCC/C(C)=C/C(=O)NCCCN(CCCN)CCCN [Compound 5] |  |  |  |  |  |  |  |  |  |  |  |  |  |  |  |  |  |  |  |  | tissue observation at the highest dose ([9]; 35.25 mg/kg): slight vascular modifications; tissue anomaly (liver, lung, kidney, intestine) [9]: no significant tissue anomaly |
| CC(C)=CCC/C(C)=C/CNCCCN [Compound 12, (3,7-Dimethyl-octa-2,6-dienyl)-propane-1,3-diamine] |  |  |  |  | 16 | 4-8 |  | 8 | 16 |  |  | 32 |  |  |  |  |  |  |  | 16 | tissue anomaly (liver, lung, kidney, intestine) [9]: no significant tissue anomaly |
| CC(C)=CCC/C(C)=C/CC/C(C)=C/CNCCCNCCCCNCCCN [Compound 8, {3-[4-(3-Amino-propylamino)-butylamino]-propyl}-(3,7,11-trimethyl-dodeca-2,6,10-trienyl)-amine] | 0.726 | 2 | 16 | 4 | 16 | 16-32 | >16 | 16-32 | 8 | 8 | 64 | 64 | 4 | 8 | 4 | 0.0078 | about 4.9 times | strong activity | 8-16 | 8-16 | tissue anomaly (liver, lung, kidney, intestine) [9]: no significant tissue anomaly; MIC ratio(*) on Ea289 Ery ([8]; Set 1): 32; MIC ratio (*) on Ea289 Nal ([8]; Set 1): >16 |
| O=C(N[C@H](CO)[C@H](O)c1ccc([N+](=O)[O-])cc1)C(Cl)Cl [Chloramphenicol, reference compound] |  |  |  |  |  |  |  |  |  |  |  |  |  |  |  |  |  |  |  |  | Chl-MIC: Chloramphenicol Minimal Inhibitory Concentration, Ea294 (Ea294): 64 µg/mL; Chl-MIC: Chloramphenicol Minimal Inhibitory Concentration, Ea289 (Ea289): 1024 µg/mL; Chl-MIC: Chloramphenicol Minimal Inhibitory Concentration, BN10055 (BN10055): 256 µg/mL; Chl-MIC: Chloramphenicol Minimal Inhibitory Concentration, BN10055ΔacrB (BN10055ΔacrB [10]): 16 µg/mL |
